These results are taken from patent US11591341B2 (ALIGOS THERAPEUTICS, INC., priority 2019, dated 2023).

Where only a bound is given, the exact number is not on record here.

For the experiment, the system named is HBV. The experiment is described as follows: HBV-DNA Antiviral Assay Using HepG2.117 Cells (intracellular HBV DNA by qPCR). Type of experiment: cell-based, hepatitis B virus (genotype D). The note with it: Hepatitis B virus, HepG2.117. The gist of the method: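 HepG2.117 cells (genotype D HBV, Tet-off) were induced by doxycycline withdrawal and treated for 3 days with 9 concentrations in 4-fold dilution, 2% DMSO final. Intracellular HBV DNA was measured by qPCR against a standard curve, with ATPlite viability read in parallel. EC50, EC90 and CC50 came from fits against the DMSO control.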
Background: In qPCR the cycle at which signal appears reflects the starting amount.

With `O=C(NCc1ccccc1)c1c2n(c(=O)n1-c1ccc3c(c1)OCO3)CCN(C(=O)c1ccc(Cl)c(Cl)c1)C2` [Example 88, 2-(1,3-benzodioxol-5-yl)-N-benzyl-7-(3,4-dichlorobenzoyl)-3-oxo-6,8-dihydro-5H-imidazo[1,5-a]pyrazine-1-carboxamide], the 50% effective concentration (EC50) (in general, the concentration giving half of the maximal effect) lay within 500 to 5000 nM.

Compound `CC(C)Oc1ccc(-n2c(C(=O)NCc3ccc(C#N)cc3F)c3n(c2=O)CCN(C(=O)c2ccc(Br)c(Cl)c2)C3)cc1` [Example 212, 7-(4-bromo-3-chloro-benzoyl)-N-[(4-cyano-2-fluoro-phenyl)methyl]-2-(4-isopropoxyphenyl)-3-oxo-6,8-dihydro-5H-imidazo[1,5-a]pyrazine-1-carboxamide] registered an EC50 of 100 to 500 nM.

Turning to `O=C(NCc1ccccc1)c1c2n(c(=O)n1-c1ccc(OC(F)(F)F)cc1)CCN(C(=O)c1ccc(Cl)c(Cl)c1)C2` [Example 131, N-benzyl-7-(3,4-dichlorobenzoyl)-3-oxo-2-[4-(trifluoromethoxy)phenyl]-6,8-dihydro-5H-imidazo[1,5-a]pyrazine-1-carboxamide], the concentration giving a half-maximal response (EC50) is more than 5000 nM.

With `C[C@@H](NC(=O)c1c2n(c(=O)n1-c1ccc(OCC(F)(F)F)cc1)CCN(C(=O)c1ccc(Br)c(Cl)c1)C2)c1ccc(OC(F)F)cc1F` (stereo in doubt) [Example 317, 7-(4-bromo-3-chloro-benzoyl)-3-oxo-N-[rac-(1R)-1-[4-(difluoromethoxy)-2-fluoro-phenyl]ethyl]-2-[4-(2,2,2-trifluoroethoxy)phenyl]-6,8-dihydro-5H-imidazo[1,5-a]pyrazine-1-carboxamide], the EC50 is 500 to 5000 nM.

Turning to `COc1ccc(-n2c(C(=O)NCc3ccc(OCC(N)=O)cc3)c3n(c2=O)CCN(C(=O)c2ccc(Br)c(Cl)c2)C3)cc1` [Example 205, N-[[4-(2-amino-2-oxo-ethoxy)phenyl]methyl]-7-(4-bromo-3-chloro-benzoyl)-2-(4-methoxyphenyl)-3-oxo-6,8-dihydro-5H-imidazo[1,5-a]pyrazine-1-carboxamide], the EC50 was 500 to 5000 nM.

For the compound `O=C(c1ccc(Br)c(Cl)c1)N1CCn2c(c3n(c2=O)CC2(COC2)CN(Cc2ccccc2)C3=O)C1` [Example 239, 13-benzyl-4-(4-bromo-3-chloro-benzoyl)spiro[4,7,9,13-tetrazatricyclo[7.5.0.0 2,7]tetradec-1-ene-11,3′-oxetane]-8,14-dione], the EC50 lay within 500 to 5000 nM.

The compound `COc1ccc(-n2c(C(=O)N[C@H](c3ccccc3)C(F)F)c3n(c2=O)CCN(C(=O)c2ccc(Br)c(Cl)c2)C3)cc1` (stereo in doubt) [Example 253, 7-(4-bromo-3-chloro-benzoyl)-2-(4-methoxyphenyl)-3-oxo-N-[rac-(1R)-2,2-difluoro-1-phenyl-ethyl]-6,8-dihydro-5H-imidazo[1,5-a]pyrazine-1-carboxamide] displayed an EC50 of 100 to 500 nM.

Compound `COc1ccc(-n2c(C(=O)NCc3ccc(C#N)cc3)c3n(c2=O)CCN(C(=O)c2ccc(Cl)c(Cl)c2)C3)cc1` [Example 84, N-[(4-cyanophenyl)methyl]-7-(3,4-dichlorobenzoyl)-2-(4-methoxyphenyl)-3-oxo-6,8-dihydro-5H-imidazo[1,5-a]pyrazine-1-carboxamide] yielded an EC50 of more than 5000 nM.

`CC1Cn2c(c(C(=O)NCc3ccccc3-c3ncccn3)n(-c3ccc(OC4CC4)cc3)c2=O)CN1C(=O)c1ccc(Br)c(C#N)c1` (racemic) [Example 451, rac-(6R)-7-(4-bromo-3-cyano-benzoyl)-2-[4-(cyclopropoxy)phenyl]-6-methyl-3-oxo-N-[(2-pyrimidin-2-ylphenyl)methyl]-6,8-dihydro-5H-imidazo[1,5-a]pyrazine-1-carboxamide] yielded an EC50 of 100 to 500 nM.

`O=C(NCc1ccc(OC(F)F)cc1F)c1c2n(c(=O)n1-c1ccc(OC3CC3)cc1)CCN(C(=O)c1ccc(Br)c(Cl)c1)C2` [Example 297, 7-(4-bromo-3-chloro-benzoyl)-2-[4-(cyclopropoxy)phenyl]-N-[[4-(difluoromethoxy)-2-fluoro-phenyl]methyl]-3-oxo-6,8-dihydro-5H-imidazo[1,5-a]pyrazine-1-carboxamide] yielded an EC50 of 100 to 500 nM.

With `C[C@@H]1Cn2c(c(C(=O)NCc3ccccc3-n3cccn3)n(-c3ccc(OC4CC4)cc3)c2=O)CN1C(=O)c1ccc(Br)c(Cl)c1` (stereo in doubt) [Example 439, rac-(6R)-7-(4-bromo-3-chloro-benzoyl)-2-[4-(cyclopropoxy)phenyl]-6-methyl-3-oxo-N-[(2-pyrazol-1-ylphenyl)methyl]-6,8-dihydro-5H-imidazo[1,5-a]pyrazine-1-carboxamide], the EC50 lay in the range of 100 to 500 nM.

Compound `COc1ccc(-n2c(C(=O)NCc3ccc(CC(N)=O)cc3)c3n(c2=O)CCN(C(=O)c2ccc(Br)c(Cl)c2)C3)cc1` [Example 183, N-[[4-(2-amino-2-oxo-ethyl)phenyl]methyl]-7-(4-bromo-3-chloro-benzoyl)-2-(4-methoxyphenyl)-3-oxo-6,8-dihydro-5H-imidazo[1,5-a]pyrazine-1-carboxamide] gave an EC50 of 500 to 5000 nM.

`O=C(NCc1ccccc1-c1ncc[nH]1)c1c2n(c(=O)n1-c1ccc(OCC(F)(F)F)cc1)CCN(C(=O)c1ccc(Br)c(Cl)c1)C2` [Example 425, 7-(4-bromo-3-chloro-benzoyl)-N-[[2-(1H-imidazol-2-yl)phenyl]methyl]-3-oxo-2-[4-(2,2,2-trifluoroethoxy)phenyl]-6,8-dihydro-5H-imidazo[1,5-a]pyrazine-1-carboxamide] showed a concentration giving a half-maximal response (EC50) of less than 100 nM.

Consider `CCc1cc(OC)ccc1CNC(=O)c1c2n(c(=O)n1-c1ccc(OC)cc1)CCN(C(=O)c1ccc(Br)c(Cl)c1)C2` [Example 251, 7-(4-bromo-3-chloro-benzoyl)-N-[(2-ethyl-4-methoxy-phenyl)methyl]-2-(4-methoxyphenyl)-3-oxo-6,8-dihydro-5H-imidazo[1,5-a]pyrazine-1-carboxamide], for which the EC50 was 100 to 500 nM.

Compound `COc1ccc(CN2C/C=C\Cn3c(c4n(c3=O)CCN(C(=O)c3ccc(Br)c(Cl)c3)C4)C2=O)cc1` [Example 132, (11Z)-4-(4-bromo-3-chloro-benzoyl)-14-[(4-methoxyphenyl)methyl]-4,7,9,14-tetrazatricyclo[7.6.0.0^2,7]pentadeca-1,11-diene-8.15-dione] showed an EC50 of 100 to 500 nM.

`COc1ccc(CNC(=O)c2c3n(c(=O)n2-c2ccc(C#N)cc2)CCN(C(=O)c2ccc(Br)c(Cl)c2)C3)c(F)c1` [Example 164, 7-(4-bromo-3-chloro-benzoyl)-2-(4-cyanophenyl)-N-[(2-fluoro-4-methoxy-phenyl)methyl]-3-oxo-6,8-dihydro-5H-imidazo[1,5-a]pyrazine-1-carboxamide] registered an EC50 of 500 to 5000 nM.

On to `COc1ccc(-n2c(C(=O)NCc3cc(OC)cc(OC)c3)c3n(c2=O)CCN(C(=O)c2ccc(Br)c(Cl)c2)C3)cc1` [Example 153, 7-(4-bromo-3-chloro-benzoyl)-N-[(3,5-dimethoxyphenyl)methyl]-2-(4-methoxyphenyl)-3-oxo-6,8-dihydro-5H-imidazo[1,5-a]pyrazine-1-carboxamide], for which the 50% effective concentration (EC50) lay within 100 to 500 nM.

`COc1ccc(-n2c(C(=O)NCc3ccc4c(c3)OCCO4)c3n(c2=O)CCN(C(=O)c2ccc(Cl)c(Cl)c2)C3)cc1` [Example 91, 7-(3,4-dichlorobenzoyl)-N-(2,3-dihydro-1,4-benzodioxin-6-ylmethyl)-2-(4-methoxyphenyl)-3-oxo-6,8-dihydro-5H-imidazo[1,5-a]pyrazine-1-carboxamide]: the EC50 fell in the range of 500 to 5000 nM.

On to `COc1ccc(-n2c(C(=O)NCc3ccc(Cl)c(OC)c3)c3n(c2=O)CCN(C(=O)c2ccc(Cl)c(Cl)c2)C3)cc1` [Example 102, N-[(4-chloro-3-methoxy-phenyl)methyl]-7-(3,4-dichlorobenzoyl)-2-(4-methoxyphenyl)-3-oxo-6,8-dihydro-5H-imidazo[1,5-a]pyrazine-1-carboxamide], for which the EC50 was in the range of 500 to 5000 nM.

`O=C(NCc1cccc2[nH]cnc12)c1c2n(c(=O)n1-c1ccc(OC3CC3)cc1)CCN(C(=O)c1ccc(Br)c(Cl)c1)C2` [Example 367, N-(1H-benzoimidazol-4-ylmethyl)-7-(4-bromo-3-chloro-benzoyl)-2-[4-(cyclopropoxy)phenyl]-3-oxo-6,8-dihydro-5H-imidazo[1,5-a]pyrazine-1-carboxamide] had an EC50 of 100 to 500 nM.

Take `CNc1ccc(-n2c(C(=O)NCc3ccccc3)c3n(c2=O)CCN(C(=O)c2ccc(Br)c(Cl)c2)C3)cc1` [Example 311, N-benzyl-7-(4-bromo-3-chloro-benzoyl)-2-[4-(methylamino)phenyl]-3-oxo-6,8-dihydro-5H-imidazo[1,5-a]pyrazine-1-carboxamide]: the EC50 lay in the range of 100 to 500 nM.

Turning to `C[C@@H]1Cn2c(c(C(=O)N[C@H](C)c3ccccc3)n(-c3ccc(OC4CC4)cc3)c2=O)CN1C(=O)c1ccc(Br)c(Cl)c1` (mixture of isomers) [Example 331, (6RS)-7-(4-bromo-3-chloro-benzoyl)-2-[4-(cyclopropoxy)phenyl]-6-methyl-3-oxo-N-[(1S)-1-phenylethyl]-6,8-dihydro-5H-imidazo[1,5-a]pyrazine-1-carboxamide], the EC50 was in the range of 500 to 5000 nM.

As for `COc1ccc(-n2c(C(=O)N[C@@H]3CCc4cc(OC)ccc43)c3n(c2=O)CCN(C(=O)c2ccc(Br)c(Cl)c2)C3)cc1` (stereo in doubt) [Example 99, 7-(4-bromo-3-chloro-benozyl)-2-(4-methoxyphenyl)-3-oxo-N-[rac-(1R)-5-methoxyindazin-1-yl]-6,8-dihydro-5H-imidazo[1,5-a]pyrazine-1-carboxamide], the EC50 lay within 500 to 5000 nM.

Take `CC(Oc1ccc(CNC(=O)c2c3n(c(=O)n2-c2ccc(OC4CC4)cc2)CCN(C(=O)c2ccc(Br)c(Cl)c2)C3)c(F)c1)C(N)=O` (racemic) [Example 394, 7-(4-bromo-3-chloro-benzoyl)-2-[4-(cyclopropoxy)phenyl]-N-[[2-fluoro-4-[rac-(1S)-2-amino-1-methyl-2-oxo-ethoxy]phenyl]methyl]-3-oxo-6,8-dihydro-5H-imidazo[1,5-a]pyrazine-1-carboxamide]: the EC50 lay within 100 to 500 nM.
